Laboratory results published in US7049331B2, “1,2,4-thiadiazole derivatives as melanocortin receptor modulators” (Ortho-McNeil Pharmaceutical, Inc., priority 2001, dated 2006).
Read-outs that look alike come from different tables or passages of the source.

Legend:
[1] = target: T1, melanocortin MC-4 receptor (Homo sapiens, UniProt P32245); test: Melanocortin MC-4 Receptor Binding Assay (SPA)
T1 construct: purchased Receptor Biology Inc
Procedure: Melanocortin MC-4 Receptor Binding Assay Melanocortin [MC-4]-membrane [purchased from Receptor Biology Inc] was coupled to wheat germ agglutinin coated polyvinyl toluene-Scintillation Proximity Assay beads [purchased from Amersham Pharmacia Inc.] for 30 min at 25° C. Into each well of a 96-well Opti plate [purchased from Packard, Calif.], 2.5 μg of membrane and 0.25 mg of beads were mixed in a volume of 100 μL media. […] Test compounds (1.5 μL) at 1 mM in 30% DMSO-50 mM HEPES, pH 7.4 buffer was added to separate wells on the plate. Radioactive ligand ^125I-NDP-melanocyte stimulating hormone [NEN, 2000Ci/mmol] was added to each well (48.5 μL per well, 40 pM final concentration). The plate was then sealed and let stand for 16 hr at 25° C. NDP-Melanocyte stimulating hormone peptide and α-melanocyte stimulating hormone peptide [purchased from Palomar Research Inc, 1 μM] were used as reference inhibitor compounds to define non-specific binding (N). Total binding (T) was defined using 30% DMSO-50 mM HEPES, pH 7.4 buffer. Bound radioactivity for each well (Y), measured at counts per minute (cpm) was measured in a TopCount [Packard, Calif.]. Percent inhibition was calculated as: […] The procedures described above for the melanocortin MC-4 receptor were repeated for the melanocortin MC-3 receptor. Following the procedures described, representative compounds of the present invention were tested for binding in the MC-4 and/or MC-3 assay, as listed in Table 4.

[2] = target: T1, melanocortin MC-4 receptor; test: MC-4 receptor binding (Filtration); conditions: Filtration; for IC50: read-out: IC50 MC-4 (μM) (Filtration)
Procedure: The procedures described above for the melanocortin MC-4 receptor were repeated for the melanocortin MC-3 receptor. Following the procedures described, representative compounds of the present invention were tested for binding in the MC-4 and/or MC-3 assay, as listed in Table 4.

Hippocampal Cells = test: Neurite Cell Outgrowth Assay, hippocampal cells; assay type: cell-based; conditions: Rattus norvegicus; 50 nM; percent change over the vehicle response; NA = no change/not active
Source text: (§1) Dissociated hippocampal and cortical cell cultures were established from embryonic day 18 rat fetuses as described by Mattson, M. P., Barger, S. W., Begley, J, and Mark, R. J., Methods Cell Biol., 1994, 46:[…]. Briefly, fetuses were removed via cesarean section from pregnant moms (Sprague-Dawley) and anesthetized with halothane according to the AVMA Panel on Euthanasia. Pups were decapitated and the brains were removed and placed in HEPES-buffered Hank's Balanced Salt solution (HBSS; Gibco). The hippocampi and cortices were dissected out and pooled according to tissue-type. Tissue was trypsinized for 15 min (1 mg/ml trypsin-HBSS; Worthington), rinsed with fresh HBSS, incubated in trypsin inhibitor (1 mg/ml; Sigma) for 5 min, rinsed again with fresh HBSS and then triturated in 1 ml fresh HBSS with a fire-polished glass pipette. Dissociated cells were seeded at 30,000 cells/well onto poly-D-lysine coated 96-well plates (Collaborative BioScience). Each well contained 100 μl of Eagle's Minimal Essential Media (MEM; Gibco) supplemented with 26 mM NaHCO3 (Sigma), 56 mM glucose (Sigma), 15 mM KCl (Sigma), 1 mM sodium pyruvate (Sigma), 1.1 mM L-glutamine (Sigma), 10% (v/v) heat-inactivated fetal bovine serum (Hyclone), and 0.001% gentamicin sulfate (Sigma) (pH 7.4). Cells were allowed to attach for 24 h in a humidified 37° C. 5% CO2 incubator before experimental treatment. The culture media was aspirated and exchanged with fresh media every 3 days.
(§2) Twenty-four hours after plating, cultures were treated with vehicle (PBS+0.1% BSA), alpha-melanocyte stimulating hormone (α-MSH) or test compound (diluted in DPBS). Each treatment condition was run in quadruplicate. On the third day in culture, the media was aspirated off and replaced with fresh media and test compound. At one week in culture, the cells were fixed with 10% phosphate-buffered formalin for 15 min, then rinsed with DPBS (Sigma) and placed in blocking serum for 30 min (horse serum; 1:50 dilution in DPBS; Vector Labs). The cultures were rinsed again with DPBS and then incubated in primary antibody for 2 hr (microtubule-associated protein-2 (MAP-2) is a selective marker for dendritic processes; anti-mouse monoclonal (Chemicon); 1:1000 dilution of MAP-2 in antibody diluent (Zymed)). Negative control wells were incubated in antibody diluent alone. Background signal was determined by blank wells (cell-free) incubated with or without antibody. Cultures were rinsed again with DPBS and then placed in fluorescein for 1 hr (FITC; anti-mouse IgG; rat adsorbed; 1:50 dilution in DPBS; Vector Labs). Cultures were rinsed a final time with DPBS and the plates were then read on a Cytofluor 4000 fluorescence plate reader. Neurite outgrowth was expressed as percent change from control (vehicle).
(§3) The data are expressed as percent change over the vehicle response. All compounds were screened at 50 nM. The abbreviation NA indicates no change/not active; the abbreviation ND indicates a compound not tested/response not determined.

Cortical Cells = test: Neurite Cell Outgrowth Assay, cortical cells; assay type: cell-based; conditions: Rattus norvegicus; 50 nM; percent change over the vehicle response; NA = no change/not active
Source text: as §1, §2, §3

Food-Deprived Rats = test: Rodent Feeding: Food Intake in Food-Deprived Rats (MC-4); assay type: in vivo, rat; conditions: Rattus norvegicus
Source text: Rodent Feeding: Food Intake in Food-Deprived Rats (MC-4)
Male Long-Evans rats (180–200 grams) were housed individually and maintained on a once-a-day feeding schedule (i.e.10 a.m. until 4 p.m.) for five days following quarantine to allow the animals to acclimate to feeding on powdered chow (#5002 PMI Certified Rodent Meal) during the allotted time. The chow was made available in an open jar, anchored in the cage by a wire, with a metal follower covering the food to minimize spillage. Water was available ad-libitum.
Animals were fasted for 18 hours prior to testing. At the end of the fasting period, animals were administered either a test compound or vehicle. Vehicle and test compound were administered either orally (5 mL/kg) 60 minutes prior to the experiment, subcutaneously (1 mL/kg) 30 minutes prior to the experiment, or intraperitoneally (1 mL/kg) 30 minutes prior to the experiment. Test compounds were administered orally as a suspension in aqueous 0.5% methylcellulose-0.4% Tween 80, or intraperitoneally as a solution or suspension in PEG 200; compound concentrations typically ranged from 1 mg/kg to 100 mg/kg, preferably from 10–30 mg/kg. Food intake was measured at 2, 4, and 6 hours after administration by weighing the special jar containing the food before the experiment and at the specified times. Upon completion of the experiment, all animals were given a one-week washout period before re-testing.
Following the procedure described above, select compounds of the present invention were tested to measure the effect on food intake in fasted rats, as listed in Table 5 and 6.

[3] = ip, 2 h, ip, read-out: Change in Food Intake 0–2 hrs (%)
[4] = ip, 6 h, ip, read-out: Change in Food Intake 2–6 hrs (%)
[5] = po, 2 h, po, read-out: Change in Food Intake 0–2 hrs (%)
[6] = po, 6 h, po, read-out: Change in Food Intake 2–6 hrs (%)

T1 sequence (P32245 whole entry): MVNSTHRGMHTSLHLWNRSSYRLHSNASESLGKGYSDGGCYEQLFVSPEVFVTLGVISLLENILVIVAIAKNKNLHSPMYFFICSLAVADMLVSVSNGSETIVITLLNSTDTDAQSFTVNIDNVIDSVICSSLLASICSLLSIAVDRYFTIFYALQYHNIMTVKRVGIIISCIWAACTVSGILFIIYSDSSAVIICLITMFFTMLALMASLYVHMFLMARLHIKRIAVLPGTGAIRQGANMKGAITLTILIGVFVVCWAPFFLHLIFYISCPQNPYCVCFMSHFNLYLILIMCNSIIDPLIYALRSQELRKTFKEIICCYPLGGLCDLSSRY

Structure (SMILES)	IC50 [1] [nM]	IC50 [2] [µM]	activation at 0.05 µM (Hippocampal Cells) [%]	activation at 0.05 µM (Cortical Cells) [%]	other results
Cc1ccc(-[n+]2sc(Nc3ccccc3)nc2-c2ccccc2)cc1 [Compound 2]	234	1.5	18	18	–
COc1ccccc1Nc1nc(-c2ccccc2)[n+](-c2ccc(C)cc2)s1 [Compound 3]	159	0.7	17	23	–
Cc1ccc(Nc2nc(-c3ccccc3)[n+](-c3ccc(C)cc3)s2)cc1 [Compound 4]	297	–	20	21	IC50 MC-4 (μM) (Filtration) [2]: inactive
Cc1ccc(-[n+]2sc(Nc3ccccc3C)nc2-c2ccccc2)cc1 [Compound 5]	207	1.3	28	9	–
Cc1ccc(-[n+]2sc(Nc3ccc(Cl)cc3)nc2-c2ccccc2)cc1 [Compound 6]	293	2.5	23	24	–
Cc1ccc(-[n+]2sc(Nc3ccccc3Cl)nc2-c2ccccc2)cc1 [Compound 7]	218	2.2	–	11	–
Cc1ccccc1-[n+]1sc(Nc2ccccc2)nc1-c1ccccc1 [Compound 8]	201	1.4	–	12	–
COc1ccc(Nc2nc(-c3ccccc3)[n+](-c3ccccc3C)s2)cc1 [Compound 9]	217	1.1	–	–	–
COc1ccccc1Nc1nc(-c2ccccc2)[n+](-c2ccccc2C)s1 [Compound 10]	130	2.3	7	11	–
Cc1ccc(Nc2nc(-c3ccccc3)[n+](-c3ccccc3C)s2)cc1 [Compound 11]	243	2.4	9	10	–
Cc1ccccc1Nc1nc(-c2ccccc2)[n+](-c2ccccc2C)s1 [Compound 12]	–	–	28	20	IC50 MC-4 (nM) (SPA) [1]: insoluble; IC50 MC-4 (μM) (Filtration) [2]: insoluble
Cc1ccccc1-[n+]1sc(Nc2ccc(Cl)cc2)nc1-c1ccccc1 [Compound 13]	347	3.4	29	32	–
Cc1ccccc1-[n+]1sc(Nc2ccccc2Cl)nc1-c1ccccc1 [Compound 14]	234	5.6	30	19	–
Clc1ccc(-[n+]2sc(Nc3ccccc3)nc2-c2ccccc2)cc1 [Compound 15]	482	4.5	18	31	–
Cc1ccccc1Nc1nc(-c2ccccc2)[n+](-c2ccc(Cl)cc2)s1 [Compound 19]	460	3.9	22	–	–
Clc1ccc(Nc2nc(-c3ccccc3)[n+](-c3ccc(Cl)cc3)s2)cc1 [Compound 20]	636	3.5	17	–	–
Cc1ccccc1Nc1nc(-c2ccccc2)[n+](-c2ccccc2)s1 [Compound 26]	63	–	16	47	change in vivo at 10 mg/kg (Food-Deprived Rats; [3]): -12.7%; change in vivo at 10 mg/kg (Food-Deprived Rats; [4]): -32.3%
Clc1ccc(Nc2nc(-c3ccccc3)[n+](-c3ccccc3)s2)cc1 [Compound 27]	89	–	17	52	change in vivo at 30 mg/kg (Food-Deprived Rats; [3]): -27.4%; change in vivo at 30 mg/kg (Food-Deprived Rats; [4]): -29.1%
COc1ccc(Nc2nc(-c3ccccc3)[n+](-c3ccccc3OC)s2)cc1 [Compound 29]	48	–	–	8	change in vivo at 10 mg/kg (Food-Deprived Rats; [3]): -62.3%; change in vivo at 10 mg/kg (Food-Deprived Rats; [4]): -70.7%; change in vivo at 30 mg/kg (Food-Deprived Rats; [5]): -26.3%; change in vivo at 30 mg/kg (Food-Deprived Rats; [6]): -3.7%
COc1ccccc1-[n+]1sc(Nc2ccccc2C)nc1-c1ccccc1 [Compound 32]	48	–	–	6	change in vivo at 10 mg/kg (Food-Deprived Rats; [3]): -29.6%; change in vivo at 10 mg/kg (Food-Deprived Rats; [4]): -60.2%; change in vivo at 1 mg/kg (Food-Deprived Rats; [5]): -13.8%; change in vivo at 3 mg/kg (Food-Deprived Rats; [5]): -11.5%; change in vivo at 10 mg/kg (Food-Deprived Rats; [5]): -20%; change in vivo at 30 mg/kg (Food-Deprived Rats; [5]): -12.5%; change in vivo at 1 mg/kg (Food-Deprived Rats; [6]): 26%; change in vivo at 3 mg/kg (Food-Deprived Rats; [6]): 31.2%; change in vivo at 10 mg/kg (Food-Deprived Rats; [6]): -1%; change in vivo at 30 mg/kg (Food-Deprived Rats; [6]): -15%
COc1ccccc1-[n+]1sc(Nc2ccccc2Cl)nc1-c1ccccc1 [Compound 34]	46	–	–	22	change in vivo at 10 mg/kg (Food-Deprived Rats; [3]): -38%; change in vivo at 10 mg/kg (Food-Deprived Rats; [4]): -72%; change in vivo at 10 mg/kg (Food-Deprived Rats; [5]): -1.3%; change in vivo at 30 mg/kg (Food-Deprived Rats; [5]): -7.5%; change in vivo at 10 mg/kg (Food-Deprived Rats; [6]): -6%; change in vivo at 30 mg/kg (Food-Deprived Rats; [6]): 2%
Clc1ccccc1Nc1nc(-c2ccccc2)[n+](-c2ccccc2)s1 [Compound 49]	96	–	16	51	change in vivo at 30 mg/kg (Food-Deprived Rats; [3]): -20.6%; change in vivo at 30 mg/kg (Food-Deprived Rats; [4]): -21.2%
